From article PMC2995054 (Nucleic Acids Research, 2010)

Biological target: vaccinia virus D10 decapping enzyme (His-tagged, WT) (Vaccinia virus, UniProt P04312)
Experiment: biochemical
Assay type: biochemical
Conditions: for remaining activity at 100 µM: 0.25 h, read-out: Relative decapping activity (%) (100 µM analog)

## Cc1cn([C@@H]2O[C@H](COP(=O)(O)OP(=O)(O)OP(=O)(O)O)[C@@H](O)[C@H]2O)c(=O)nc1N [5-methyl-CTP]
  Inhibition of the decapping reaction (in words): unable to affect the activity of the enzyme

## Cc1cn([C@@H]2O[C@H](COP(=O)(O)OP(=O)(O)OP(=O)(O)O)[C@@H](O)[C@H]2O)c(=O)[nH]c1=O [5-methyl-UTP]
  Inhibition of the decapping reaction (in words): unable to affect the activity of the enzyme

## Nc1ccn([C@@H]2O[C@H](COP(=O)(O)OP(=O)(O)O)[C@@H](O)[C@H]2O)c(=O)n1 [CDP]
  Inhibition of the decapping reaction (in words): unable to affect the activity of the enzyme

## Nc1ccn([C@@H]2O[C@H](COP(=O)(O)OP(=O)(O)OP(=O)(O)O)[C@@H](O)[C@H]2O)c(=O)n1 [CTP]
  Inhibition of the decapping reaction (in words): no inhibition

## Nc1nc2nc[nH]c2c(=O)[nH]1 [Guanine]
  IC50: > 200 µM
  Inhibition of the decapping reaction (in words): did not affect the decapping reaction
  Ki: > 800 nM
  remaining activity at 100 µM: 92 ± 4%

## NC(=O)c1ncn([C@@H]2O[C@H](CO[P@@](=O)(O)O[P@](=O)(O)OP(=O)(O)O)[C@@H](O)[C@H]2O)n1 [Ribavirin triphosphate]
  IC50: > 200 µM
  Ki: > 800 nM
  remaining activity at 100 µM: 96 ± 3%

## O=c1ccn([C@@H]2O[C@H](COP(=O)(O)OP(=O)(O)O)[C@@H](O)[C@H]2O)c(=O)[nH]1 [UDP]
  Inhibition of the decapping reaction (in words): unable to affect the activity of the enzyme

## O=c1ccn([C@@H]2O[C@H](COP(=O)(O)OP(=O)(O)OP(=O)(O)O)[C@@H](O)[C@H]2O)c(=O)[nH]1 [UTP]
  Inhibition of the decapping reaction (in words): no inhibition

## O=P(O)(O)OP(=O)(O)O [pyrophosphate]
  Inhibition of the decapping reaction (in words): unable to inhibit

## O=P(O)(O)OP(=O)(O)OP(=O)(O)O [tripolyphosphate]
  Inhibition of the decapping reaction (in words): unable to inhibit
